Assay: UV absorbance (UV spectra), sunscreen properties
Assay type: physicochemical
From the text: FIG. 1 through 8 show UV spectra of 111 compounds sharing PABA “hot building block”, their 16 synthetic intermediates, and one compound with salicylic acid building block. Reference numerals identify compounds according to the numbering adopted in the Experimental section and elsewhere in the specification.
UV-B (290-320 nm) radiation is known to be harmful for human skin. Acute negative effects include inflammation, sunburns, pigmentation changes and hyperplasia. Chronic negative effects include photoaging, immunosuppression and photocarcinogenesis, including squamous cells, basal cells and melanoma skin cancer. The UV-B radiation is also responsible for 98% of cases of delayed erythema development.
Various sunscreen agents have been developed to protect human skin from this harmful UV-B radiation. One known class of such UV-B sunscreen agents is PABA and its various derivatives. Their UV-protecting properties are due to their strong UV absorbance (e266=15,000 for p-aminobenzoic acid). […] As such, these compounds are useful as sunscreen agents.

SMILES: Nc1ccc(C(=O)O)cc1 [Compound (59), 4-Aminobenzoic acid]
- UV absorbance e266: 15,000
